# Publication PMC11067372, “Evaluation of the antiplasmodial efficacy of synthetic 2,5-diphenyloxazole analogs of compounds naturally derived from Oxytropis lanata” (International Journal for Parasitology: Drugs and Drug …, 2024)
# Where two headings read alike, the source gives them in different places.
# How the values were obtained:
# P. falciparum K1 = assay: In vitro inhibition of P. falciparum K1 (SYBR Green I-based fluorescence assay); type: cell-based; conditions: Plasmodium falciparum; multidrug-resistant strain K1; 72 h incubation; average ± SD, three independent experiments; read-out: IC50 P. falciparum K1
# Protocol: (§1) The cultures were maintained in an incubator under specific conditions: 37 °C under 5% CO2 and 5% O2.
# (§2) The D-sorbitol method (CAS: 50-70-4, Wako, Osaka, Japan) was employed to synchronize parasites, resulting in the attainment of ≥90% ring-stage parasites. These synchronized parasites were then utilized for the experiments within a 2-h window. The assay was performed as follows. First, 50 μL of synchronized parasites with 0.5% parasitemia and 2% hematocrit were added to individual wells of a 96-well plate. Then, 50 μL of the test compounds was introduced to each well. […] Wells containing only test compounds and erythrocytes were included for background correction. […] After the designated incubation time, 100 μL of lysis buffer containing 0.02% (v/v) SYBR Green I was added to each well, the contents of the well were mixed by pipetting, and the plate was incubated in the dark at room temperature for 2 h. […] This assay was repeated four times at each concentration, and the resulting inhibitory values represent the average from three independent trials.
# (§3) The IC50 or CC50 values were determined from three independent experiments by plotting the logarithmic concentration of the compound against the percent parasite inhibition or cell growth inhibition, respectively. Nonlinear regression analysis was conducted using GraphPad Prism 10 (GraphPad Software, Inc., La Jolla, CA, USA). Comparisons between groups were evaluated using either one-way or two-way ANOVA followed by Tukey's or Fisher's multiple comparisons tests. […] The meaning of each symbol is specified in the corresponding figure legend alongside the name of the employed test.
# [1] = In vitro toxicity to human cells (cell viability assay); type: cell-based; conditions: human foreskin fibroblasts (HFFs), average ± SD, three independent experiments
# Protocol: HFF cells are selected for cytotoxicity testing in this study, providing a physiologically relevant model for the evaluation of drug interactions with human cells. […] This designation makes them a suitable model for the investigation of cellular processes and their sensitivity to toxic substances, which is crucial for the early identification of potential adverse effects of drugs during the development process.
# The IC50 or CC50 values were determined from three independent experiments by plotting the logarithmic concentration of the compound against the percent parasite inhibition or cell growth inhibition, respectively. Nonlinear regression analysis was conducted using GraphPad Prism 10 (GraphPad Software, Inc., La Jolla, CA, USA). Comparisons between groups were evaluated using either one-way or two-way ANOVA followed by Tukey's or Fisher's multiple comparisons tests. A p-value of <0.05 was considered to indicate statistical significance and is denoted by an asterisk or a symbol. The meaning of each symbol is specified in the corresponding figure legend alongside the name of the employed test.
# P. falciparum 3D7 = assay: In vitro inhibition of P. falciparum 3D7 (SYBR Green I-based fluorescence assay); type: cell-based, Plasmodium falciparum; set-up: logIC50: unit not given here; conditions: for IC50: Plasmodium falciparum; for logIC50: base-10 log-transformed IC50 against P. falciparum 3D7
# Protocol: as §1, §2, §3
# [2] = Table S2, P. falciparum 3D7, value used for SAR analysis, read-out: IC50
# [3] = chloroquine-sensitive strain 3D7, 72 h incubation, average ± SD, three independent experiments, read-out: IC50 P. falciparum 3D7
# [4] = 3D7, Table S1, average of three independent experiments, read-out: IC50 Mean against P. falciparum 3D7
Compound,IC50 (P. falciparum K1),CC50 [1],IC50 (P. falciparum 3D7; [2]),IC50 (P. falciparum 3D7; [3]),logIC50 (P. falciparum 3D7; Table S2),IC50 (P. falciparum 3D7; [4])
"Oc1ccccc1-c1cnc(-c2cccc(O)c2O)o1 [Compound 1, 2-(2′,3′-dihydroxyphenyl)-5-(2″-hydroxyphenyl)oxazole]",6.17 ± 3.33 µM,59.6 ± 4.84 µM,11 µM,11 ± 2.69 µM,1.042,
COc1ccccc1-c1cnc(-c2cccc(OC)c2OC)o1 [Compound 2],,,,,2.301,> 200 µM
CC(=O)Oc1ccccc1-c1cnc(-c2cccc(OC(C)=O)c2OC(C)=O)o1 [Compound 3],4.7 ± 2.24 µM,126 ± 31.6 µM,9.22 µM,9.22 ± 1.68 µM,0.9649,
"Oc1ccc(O)c(-c2ncc(-c3ccccc3O)o2)c1 [Compound 4, 2-(2′,5′-dihydroxyphenyl)-5-(2″-hydroxyphenyl)oxazole]",3.74 ± 1.47 µM,55.4 ± 11.7 µM,6.2 µM,6.2 ± 4.23 µM,0.7924,
COc1ccc(OC)c(-c2ncc(-c3ccccc3OC)o2)c1 [Compound 5],,,,,2.301,> 200 µM
CC(=O)Oc1ccc(OC(C)=O)c(-c2ncc(-c3ccccc3OC(C)=O)o2)c1 [Compound 6],,,13.4 µM,,1.127,13.4 µM
"Oc1ccc(O)c(-c2cnc(-c3ccccc3)o2)c1 [Compound 7, 2-phenyl-5-(2″,5″-hydroxyphenyl)oxazole]",1.65 ± 0.72 µM,54.1 ± 11 µM,3.85 µM,3.85 ± 1.87 µM,0.5852,
COc1ccc(OC)c(-c2cnc(-c3ccccc3)o2)c1 [Compound 8],,,,,2.301,> 200 µM
CC(=O)Oc1ccc(OC(C)=O)c(-c2cnc(-c3ccccc3)o2)c1 [Compound 9],1.27 ± 0.51 µM,56.7 ± 18.4 µM,3.38 µM,3.38 ± 1.46 µM,0.5284,
"Oc1ccc(O)c(-c2cnc(-c3cc(O)ccc3O)o2)c1 [Compound 10, 2-(2′,5′-dihydroxyphenyl)-5-(2″,5″-dihydroxyphenyl)oxazole]",4.94 ± 2.15 µM,39.5 ± 7.45 µM,12.6 µM,12.7 ± 7.63 µM,1.102,
COc1ccc(OC)c(-c2cnc(-c3cc(OC)ccc3OC)o2)c1 [Compound 11],,,15 µM,,1.177,15 µM
CC(=O)Oc1ccc(OC(C)=O)c(-c2cnc(-c3cc(OC(C)=O)ccc3OC(C)=O)o2)c1 [Compound 12],4.7 ± 1.69 µM,67.8 ± 1.39 µM,10.2 µM,10.2 ± 4.09 µM,1.01,
COc1ccccc1-c1cnc(-c2ccccc2OC)o1 [Compound 13],,,,,2.301,> 200 µM
COc1cccc(-c2ncc(-c3ccc4ccccc4c3)o2)c1OC [Compound 14],,,62.4 µM,,1.795,62.4 µM
COc1cccc(-c2cnc(-c3cccc(OC)c3OC)o2)c1 [Compound 15],,,74.8 µM,,1.874,74.8 µM
COc1ccc(-c2cnc(-c3cccc(OC)c3OC)o2)cc1 [Compound 16],,,,,1.579,37.9 µM
COc1ccc(OC)c(-c2cnc(-c3cccc(OC)c3OC)o2)c1 [Compound 17],,,,,2.301,> 200 µM
COc1cccc(-c2ncc(-c3ccc(OC)c(OC)c3OC)o2)c1OC [Compound 18],,,51.1 µM,,1.708,51.1 µM
COc1cccc(-c2cnc(-c3cccc(OC)c3)o2)c1 [Compound 19],,,,,1.665,46.3 µM
COc1ccc(-c2cnc(-c3ccc(OC)cc3)o2)cc1 [Compound 20],,,,,2.301,> 200 µM
COc1ccc(-c2ncc(-c3ccccc3OC)o2)c(OC)c1 [Compound 21],,,19.3 µM,,1.286,19.3 µM

Compound,IC50 (P. falciparum K1),CC50 [1],IC50 (P. falciparum 3D7; [2]),IC50 (P. falciparum 3D7; [3]),logIC50 (P. falciparum 3D7; Table S2),IC50 (P. falciparum 3D7; [4])
COc1ccccc1-c1cnc(-c2c(OC)cccc2OC)o1 [Compound 22],,,,,1.426,26.7 µM
COc1cccc(-c2cnc(-c3cccc(OC)c3OC)o2)c1OC [Compound 23],,,12.7 µM,,1.104,12.7 µM
COc1cccc(-c2cnc(-c3ccc(OC)c(OC)c3OC)o2)c1OC [Compound 24],,,,,1.832,68 µM
COc1cccc(-c2ncc(-c3ccccc3)o2)c1OC [Compound 25],,,,,1.476,29.9 µM
COc1cccc(-c2ncc(-c3ccccc3OC)o2)c1 [Compound 26],,,,,2.301,> 200 µM
COc1ccc(OC)c(-c2cnc(-c3ccccc3OC)o2)c1 [Compound 27],,,,,2.027,106 µM
COc1cccc(-c2ncc(-c3c(OC)cccc3OC)o2)c1OC [Compound 28],,,,,2.096,125 µM
COc1ccc(-c2cnc(-c3cccc(OC)c3OC)o2)c(OC)c1 [Compound 29],,,24.9 µM,,1.397,24.9 µM
COc1cccc(-c2ncc(-c3ccccc3C)o2)c1OC [Compound 30],,,,,2.301,> 200 µM
COCOc1ccccc1-c1cnc(-c2cccc(OC)c2OC)o1 [Compound 33],,,18.2 µM,,1.26,18.2 µM
CCOc1ccccc1-c1cnc(-c2cccc(OC)c2OC)o1 [Compound 34],,,,,2.301,> 200 µM
CCCOc1ccccc1-c1cnc(-c2cccc(OC)c2OC)o1 [Compound 35],,,27.7 µM,,1.442,27.7 µM
COc1cccc(-c2ncc(-c3ccccc3[N+](=O)[O-])o2)c1OC [Compound 36],,,39.6 µM,,1.598,39.6 µM
COc1cccc(-c2ncc(-c3ccccc3N)o2)c1OC [Compound 37],,,,,1.564,36.6 µM
COc1cccc(-c2ncc(-c3ccccc3N(C)C)o2)c1OC [Compound 38],,,54.2 µM,,1.734,54.2 µM
COc1cccc(-c2ncc(-c3ccccc3NC(C)=O)o2)c1OC [Compound 39],,,,,2.301,> 200 µM
COc1ccccc1-c1cnc(-c2cccc(OC)c2OC)s1 [Compound 41],,,,,1.189,15.5 µM
COc1ccccc1-c1nnc(-c2cccc(OC)c2OC)o1 [Compound 43],,,16.9 µM,,1.228,16.9 µM
COc1ccccc1-c1nnc(-c2cccc(OC)c2OC)s1 [Compound 45],,,,,2.301,> 200 µM
COc1ccccc1-c1coc(-c2cccc(OC)c2OC)n1 [Compound 46],,,,,1.65,44.7 µM
